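Here, GI50 denotes the concentration required for 50% inhibition of growth. TGI: concentration producing complete growth inhibition.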
Legend:
Test in all cases: growth of human tumour cells (NCI), 384-well format
[1] = tested on: 786-0 renal
[2] = tested on: A498 renal
[3] = tested on: A549 NSCLC
[4] = tested on: ACHN renal
[5] = tested on: BT-549 breast
[6] = tested on: CAKI-1 renal
[7] = tested on: CCRF-CEM leukemia
[8] = tested on: COLO 205 colon
[9] = tested on: DU-145 prostate
[10] = tested on: EKVX NSCLC
[11] = tested on: HCC-2998 colon
[12] = tested on: HCT-116 colon
[13] = tested on: HCT-15 colon
[14] = tested on: HL-60(TB) leukemia
[15] = tested on: HOP-62 NSCLC
[16] = tested on: HOP-92 NSCLC
[17] = tested on: HS 578T breast
[18] = tested on: HT29 colon
[19] = tested on: IGROV1 ovarian
[20] = tested on: K-562 leukemia
[21] = tested on: KM12 colon
[22] = tested on: LOX IMVI melanoma
[23] = tested on: M14 melanoma
[24] = tested on: MALME-3M melanoma
[25] = tested on: MCF7 breast
[26] = tested on: MDA-MB-231 breast
[27] = tested on: MDA-MB-435 melanoma
[28] = tested on: MDA-MB-468 breast
[29] = tested on: MOLT-4 leukemia
[30] = tested on: NCI-H226 lung
[31] = tested on: NCI-H23 lung
[32] = tested on: NCI-H322M lung
[33] = tested on: NCI-H460 NSCLC
[34] = tested on: NCI-H522 lung
[35] = tested on: NCI/ADR-RES ovarian
[36] = tested on: OVCAR-3 ovarian
[37] = tested on: OVCAR-4 ovarian
[38] = tested on: OVCAR-5 ovarian
[39] = tested on: OVCAR-8 ovarian
[40] = tested on: PC-3 prostate
[41] = tested on: RPMI-8226 leukemia
[42] = tested on: RXF 393 renal
[43] = tested on: SF-268 CNS
[44] = tested on: SF-295 CNS
[45] = tested on: SF-539 CNS
[46] = tested on: SK-MEL-28 melanoma
[47] = tested on: SK-MEL-5 melanoma
[48] = tested on: SK-OV-3 ovarian
[49] = tested on: SN12C renal
[50] = tested on: SNB-19 CNS
[51] = tested on: SNB-75 CNS
[52] = tested on: SR leukemia
[53] = tested on: SW-620 colon
[54] = tested on: T-47D breast
[55] = tested on: TK-10 renal
[56] = tested on: U251 glioblastoma
[57] = tested on: UACC-257 melanoma
[58] = tested on: UO-31 renal

CN1CCN(c2ccc3nc(-c4c(N)c5c(F)cccc5[nH]c4=O)[nH]c3c2)CC1
GI50 [1]: 1.07 µM
TGI [1]: 2.3 µM
GI50 [2]: 0.472 µM
TGI [2]: 1.77 µM
GI50 [3]: 0.72 µM
TGI [3]: 1.99 µM
GI50 [4]: 0.344 µM
TGI [4]: 1.5 µM
GI50 [5]: 0.451 µM
TGI [5]: 1.7 µM
GI50 [6]: 0.265 µM
TGI [6]: 1.32 µM
GI50 [7]: 0.369 µM
TGI [7]: 1.08 µM
GI50 [8]: 1.01 µM
TGI [8]: 2.17 µM
GI50 [9]: 0.779 µM
TGI [9]: 2.1 µM
GI50 [10]: 1.04 µM
TGI [10]: 2.39 µM
GI50 [11]: 0.744 µM
TGI [11]: 2.02 µM
GI50 [12]: 0.624 µM
TGI [12]: 1.9 µM
GI50 [13]: 0.417 µM
TGI [13]: 1.63 µM
GI50 [14]: 0.357 µM
TGI [14]: 1.29 µM
GI50 [15]: 1.08 µM
TGI [15]: 2.32 µM
GI50 [16]: 0.645 µM
TGI [16]: 2 µM
GI50 [17]: 0.358 µM
TGI [17]: 1.5 µM
GI50 [18]: 1.24 µM
TGI [18]: 2.55 µM
GI50 [19]: 0.276 µM
TGI [19]: 1.35 µM
GI50 [20]: 0.441 µM
TGI [20]: 1.54 µM
GI50 [21]: 0.0331 µM
TGI [21]: 1.45 µM
GI50 [22]: 0.938 µM
TGI [22]: 2.13 µM
GI50 [23]: 0.34 µM
TGI [23]: 1.51 µM
GI50 [24]: 0.495 µM
TGI [24]: 1.67 µM
GI50 [25]: 1.04 µM
TGI [25]: 2.23 µM
GI50 [26]: 1.84 µM
TGI [26]: 4.05 µM
GI50 [27]: 1.28 µM
TGI [27]: 2.56 µM
GI50 [28]: 1.08 µM
TGI [28]: 2.32 µM
GI50 [29]: 0.171 µM
TGI [29]: 0.31 µM
GI50 [30]: 0.545 µM
TGI [30]: 1.98 µM
GI50 [31]: 1.15 µM
TGI [31]: 2.44 µM
GI50 [32]: 1.15 µM
TGI [32]: 2.9 µM
GI50 [33]: 0.39 µM
TGI [33]: 1.43 µM
GI50 [34]: 0.99 µM
TGI [34]: 2.16 µM
GI50 [35]: 1.61 µM
TGI [35]: 3.06 µM
GI50 [36]: 1.06 µM
TGI [36]: 2.26 µM
GI50 [37]: 1.53 µM
TGI [37]: 2.96 µM
GI50 [38]: 1.4 µM
TGI [38]: 3.58 µM
GI50 [39]: 1.24 µM
TGI [39]: 2.53 µM
GI50 [40]: 1.08 µM
TGI [40]: 3.83 µM
GI50 [41]: 0.329 µM
TGI [41]: 1.24 µM
GI50 [42]: 0.34 µM
TGI [42]: 1.37 µM
GI50 [43]: 1.25 µM
TGI [43]: 2.83 µM
GI50 [44]: 1.33 µM
TGI [44]: 2.61 µM
GI50 [45]: 0.293 µM
TGI [45]: 1.16 µM
GI50 [46]: 1.78 µM
TGI [46]: 3.17 µM
GI50 [47]: 1.08 µM
TGI [47]: 2.28 µM
GI50 [48]: 0.325 µM
TGI [48]: 1.47 µM
GI50 [49]: 0.442 µM
TGI [49]: 1.59 µM
GI50 [50]: 1.48 µM
TGI [50]: 3.12 µM
GI50 [51]: 0.493 µM
TGI [51]: 1.8 µM
GI50 [52]: 0.17 µM
TGI [52]: 0.337 µM
GI50 [53]: 0.476 µM
TGI [53]: 1.64 µM
GI50 [54]: 1.7 µM
TGI [54]: 3.1 µM
GI50 [55]: 1.25 µM
TGI [55]: 3.22 µM
GI50 [56]: 0.714 µM
TGI [56]: 2.01 µM
GI50 [57]: 1.15 µM
TGI [57]: 2.38 µM
GI50 [58]: 0.397 µM
TGI [58]: 1.6 µM

Source: PubChem BioAssay (NCI)
